Data reported in US5998376A, “Substance P treatment for immunostimulation” (priority 1998, dated 1999).

How the values were obtained:
[1] = system: splenic T cells; assay: Mitogenesis of spleen T cells (ConA, 3H-thymidine) from LP-BM5-infected mice given SP aerosol; type: in vivo, C57BL6 mice
Protocol: C57BL6 mice, average weight of 25-30 grams, were infected with the LP-BM5 murine leukemia retrovirus to simulate the human AIDS virus. […] The mice were divided into two groups; LP-BM5 virus only and LP-BM5 virus +substance P aerosol therapy at 1 μM concentration. The mice were killed at 4 and 8 weeks post-inoculation.
The proliferation of splenic B and T cells induced by mitogens was determined by incorporation of radioactive thymidine. Splenocytes in 0.1 ml of cell culture medium (1×10^7 cells/ml) were cultured in 96-well flat-bottom cultured plates with ConA and lipopolysaccharide, 5 micrograms/ml). […] After 4 hours for radioactive thymidine uptake, the cells were harvested by a cell sample harvester. Radioactivity was determined by a liquid scintillation counter (Tri-Carb, 2200CA). The T and B cell mitogenesis values were recorded as counts per min in 1×10^7 cells/ml.

[2] = system: melanoma B16 cancer cells; assay: B16 melanoma tail vein injection, tumor colonies in both lungs; type: in vivo, mice; settings: for mean number of tumor colonies observed in both lungs: 1×10^4 B16 cells/mouse, 4 weeks post-injection
From the text: The mice were infected with syngeneic […] melanoma B16 cancer cells by tail vein injection. The dose was 1×10^4 B16 tumor cells/mouse. […] The second group of mice was given their substance P aerosol therapy starting one week after the injection of the B16 cells. The aerosol therapy lasted for one week. Both groups of mice and their corresponding controls (injection with B16 cells and no substance P therapy) were killed at 4 weeks post-injection with B16 cells. The data is presented as the mean number of tumor colonies observed in both lungs.

[3] = LP-BM5 virus + SP aerosol 1 μM, 4 weeks after infection, mean (SEM)

Substance P [SP]
Spleen T Cell Mitogenesis, 24 Hours in Culture ([1]; LP-BM5 virus + SP aerosol 1 μM 3 days/week, 4 weeks after infection, mean (SEM)): 2963 (56) counts per min | Spleen T Cell Mitogenesis, 48 Hours in Culture [1, 3]: 2769 (23) counts per min | Spleen T Cell Mitogenesis, 72 hours in culture [1, 3]: 4362 (69) counts per min | Spleen T Cell Mitogenesis, 72 hours in culture ([1]; LP-BM5 virus + SP aerosol 1 μM, 8 weeks post-infection): 3127 (77) counts per min | mean number of tumor colonies observed in both lungs ([2]; 1 μM SP aerosol 15 min/day 7 days starting immediately after injection): 39 | mean number of tumor colonies observed in both lungs ([2]; 1 μM SP aerosol for one week starting one week after injection): 1 | rate of tumor colonization ([2]; tumor-challenged mammals, aerosol therapy): reduce the rate of tumor colonization
